Experimental data published in PubChem BioAssay (NCI).
Values joined by “and” are separate entries in the source; they are usually repeats but may differ in a detail not shown here. Identical values can stand only once.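 Test compounds were applied to cells in 96-well plates for 48 hours at 5 doses. GI50 = concentration required for 50% inhibition of growth. TGI: total growth inhibition.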

How the values were obtained:
Assay in all cases: NCI tumour cell line growth inhibition, 48 h
[1] = test system: SW-620 colon
[2] = test system: MDA-MB-231 breast
[3] = test system: EKVX NSCLC
[4] = test system: SN12C renal
[5] = test system: NCI-H460 lung
[6] = test system: NCI-H23 lung
[7] = test system: SF-539 CNS
[8] = test system: RXF 393 renal
[9] = test system: BT-549 breast
[10] = test system: SF-295 CNS
[11] = test system: ACHN renal
[12] = test system: COLO 205 colon
[13] = test system: NCI/ADR-RES ovarian
[14] = test system: SK-MEL-28 melanoma
[15] = test system: SK-OV-3 ovarian
[16] = test system: UACC-62 melanoma
[17] = test system: M14 melanoma
[18] = test system: T-47D breast
[19] = test system: SNB-19 CNS
[20] = test system: SNB-75 CNS
[21] = test system: A498 renal
[22] = test system: MALME-3M melanoma
[23] = test system: HOP-62 NSCLC
[24] = test system: OVCAR-3 ovarian
[25] = test system: MOLT-4 leukemia
[26] = test system: K-562 leukemia
[27] = test system: NCI-H522 lung
[28] = test system: A549 NSCLC
[29] = test system: OVCAR-8 ovarian
[30] = test system: KM12 colon
[31] = test system: RPMI-8226 leukemia
[32] = test system: U251 CNS
[33] = test system: TK-10 renal
[34] = test system: HCC-2998 colon
[35] = test system: OVCAR-5 ovarian
[36] = test system: HOP-92 NSCLC
[37] = test system: HS 578T breast
[38] = test system: DU-145 prostate
[39] = test system: SK-MEL-5 melanoma
[40] = test system: HCT-15 colon
[41] = test system: SK-MEL-2 melanoma
[42] = test system: MDA-N
[43] = test system: HCT-116 colon
[44] = test system: CAKI-1 renal
[45] = test system: LOX IMVI melanoma
[46] = test system: NCI-H226 lung
[47] = test system: CCRF-CEM leukemia
[48] = test system: UACC-257 melanoma
[49] = test system: IGROV1 ovarian
[50] = test system: MCF7 breast
[51] = test system: SR leukemia
[52] = test system: PC-3 prostate
[53] = test system: HT29 colon
[54] = test system: HL-60(TB) leukemia
[55] = test system: UO-31 renal
[56] = test system: 786-0 renal
[57] = test system: MDA-MB-435
[58] = test system: SF-268 CNS
[59] = test system: OVCAR-4 ovarian

CCC(=O)c1cc(C(=O)C(=S)SC)cc(C(=O)C(=S)SC)c1
TGI [1]: > 100 µM | TGI [2]: > 100 µM | TGI [3]: > 100 µM | TGI [4]: > 100 µM | TGI [5]: > 100 µM | TGI [6]: > 100 µM | TGI [7]: > 100 µM | TGI [8]: > 100 µM | TGI [9]: > 100 µM | TGI [10]: > 100 µM | TGI [11]: > 100 µM | TGI [12]: > 100 µM | TGI [13]: > 100 µM | TGI [14]: > 100 µM | TGI [15]: > 100 µM | TGI [16]: > 100 µM | TGI [17]: > 100 µM | TGI [18]: > 100 µM | TGI [19]: > 100 µM | TGI [20]: > 100 µM | TGI [21]: > 100 µM | TGI [22]: > 100 µM | TGI [23]: > 100 µM | TGI [24]: > 100 µM | TGI [25]: > 63.4 µM | TGI [26]: > 100 µM | TGI [27]: > 100 µM | TGI [28]: > 100 µM | TGI [29]: > 100 µM | TGI [30]: > 100 µM | TGI [31]: > 100 µM | TGI [32]: > 100 µM | TGI [33]: > 100 µM | TGI [34]: > 100 µM | TGI [35]: > 100 µM | TGI [36]: > 100 µM | TGI [37]: > 100 µM | TGI [38]: > 100 µM | TGI [39]: > 100 µM | TGI [40]: > 100 µM | TGI [41]: > 100 µM | TGI [42]: > 100 µM | TGI [43]: > 100 µM | TGI [44]: > 100 µM | TGI [45]: > 100 µM | TGI [46]: > 100 µM | TGI [47]: > 24.6 µM | TGI [48]: > 100 µM | TGI [49]: > 100 µM | TGI [50]: > 100 µM | TGI [51]: > 100 µM | TGI [52]: > 100 µM | TGI [53]: > 100 µM | TGI [54]: > 72.6 µM | TGI [55]: > 100 µM | TGI [56]: > 100 µM | TGI [57]: > 100 µM | TGI [58]: > 100 µM | TGI [59]: > 100 µM

C[C@H](CCC(=O)O)[C@H]1CC[C@H]2[C@@H]3CC[C@@H]4C[C@H](O)CC[C@]4(C)[C@H]3CC[C@]12C
GI50 [1]: > 100 µM and 27 µM | TGI [1]: > 100 µM and 78.7 µM | GI50 [2]: > 100 µM and 28.3 µM | TGI [2]: > 100 µM and 73.2 µM | GI50 [3]: > 100 µM and 20 µM | TGI [3]: > 100 µM and 69 µM | GI50 [4]: > 100 µM and 20.8 µM | TGI [4]: > 100 µM and 56.1 µM | GI50 [5]: > 100 µM and 18.2 µM | TGI [5]: > 100 µM and 32.3 µM | GI50 [6]: > 100 µM and 17.9 µM | TGI [6]: > 100 µM and 33.7 µM | GI50 [7]: > 100 µM and 27.6 µM | TGI [7]: > 100 µM and 61 µM | GI50 [8]: > 100 µM and 26 µM | TGI [8]: > 100 µM and 62.4 µM | GI50 [9]: > 100 µM and 28.4 µM | TGI [9]: > 100 µM and 74.7 µM | GI50 [10]: > 100 µM and 37.2 µM | TGI [10]: > 100 µM | GI50 [11]: > 100 µM and 37.8 µM | TGI [11]: > 100 µM | GI50 [12]: > 100 µM and 25.5 µM | TGI [12]: > 100 µM and 54.6 µM | GI50 [13]: > 100 µM and 29.3 µM | TGI [13]: > 100 µM and 82.4 µM | GI50 [14]: > 100 µM and 27 µM | TGI [14]: > 100 µM and 85.3 µM | GI50 [15]: > 100 µM and 40.3 µM | TGI [15]: > 100 µM | GI50 [16]: > 100 µM and 35.3 µM | TGI [16]: > 100 µM | GI50 [17]: > 100 µM and 17.3 µM | TGI [17]: > 100 µM and 42 µM | GI50 [18]: > 100 µM and 19.9 µM | TGI [18]: > 100 µM and 46.1 µM | GI50 [19]: > 100 µM and 24.3 µM | TGI [19]: > 100 µM and 90.7 µM | GI50 [20]: 44.6 µM and 24.6 µM | TGI [20]: > 100 µM and 59.4 µM | TGI [21]: > 100 µM | GI50 [22]: > 100 µM and 40.2 µM | TGI [22]: > 100 µM and 74.1 µM | GI50 [23]: > 100 µM and 28.2 µM | TGI [23]: > 100 µM and 73.8 µM | GI50 [24]: > 100 µM and 19 µM | TGI [24]: > 100 µM and 33.3 µM | GI50 [25]: > 100 µM and 21.5 µM | TGI [25]: > 100 µM and 52.3 µM | GI50 [26]: > 100 µM and 17.4 µM | TGI [26]: > 100 µM and 43.8 µM | GI50 [27]: > 100 µM and 25.5 µM | TGI [27]: > 100 µM and 54.5 µM | GI50 [28]: > 100 µM and 18.4 µM | TGI [28]: > 100 µM and 46.2 µM | GI50 [29]: > 100 µM and 41.3 µM | TGI [29]: > 100 µM | GI50 [30]: > 100 µM and 24.4 µM | TGI [30]: > 100 µM and 67.2 µM | GI50 [31]: > 100 µM and 22.9 µM | TGI [31]: > 100 µM and 52.7 µM | GI50 [32]: > 100 µM and 21.3 µM | TGI [32]: > 100 µM and 43.7 µM | GI50 [33]: > 100 µM and 33.6 µM | TGI [33]: > 100 µM and 83.3 µM | GI50 [34]: > 100 µM and 19.8 µM | TGI [34]: > 100 µM and 40.2 µM | GI50 [35]: > 100 µM and 20.7 µM | TGI [35]: > 100 µM and 60.3 µM | GI50 [36]: > 100 µM and 34.1 µM | TGI [36]: > 100 µM and 99.2 µM | GI50 [37]: > 100 µM and 33.3 µM | TGI [37]: > 100 µM and 65.8 µM | GI50 [38]: 86.7 µM and 30 µM | TGI [38]: > 100 µM and 87.7 µM | GI50 [39]: > 100 µM and 18.3 µM | TGI [39]: > 100 µM and 35.3 µM | GI50 [40]: > 100 µM and 23.5 µM | TGI [40]: > 100 µM and 62.3 µM | GI50 [41]: > 100 µM and 21.5 µM | TGI [41]: > 100 µM and 45.6 µM | GI50 [42]: > 100 µM and 19.9 µM | TGI [42]: > 100 µM and 46.3 µM | GI50 [43]: > 100 µM and 18.4 µM | TGI [43]: > 100 µM and 33.2 µM | GI50 [44]: > 100 µM and 22.2 µM | TGI [44]: > 100 µM and 47.1 µM | GI50 [45]: > 100 µM and 28.9 µM | TGI [45]: > 100 µM and 80.3 µM | GI50 [46]: > 100 µM and 37 µM | TGI [46]: > 100 µM | GI50 [47]: > 100 µM | TGI [47]: > 100 µM | GI50 [48]: > 100 µM and 28.3 µM | TGI [48]: > 100 µM and 67.6 µM | GI50 [49]: > 100 µM and 40 µM | TGI [49]: > 100 µM | GI50 [50]: > 100 µM and 36.5 µM | TGI [50]: > 100 µM | GI50 [51]: > 100 µM and 14.6 µM | TGI [51]: > 100 µM and 32.8 µM | GI50 [52]: > 100 µM and 23.9 µM | TGI [52]: > 100 µM and 57.6 µM | GI50 [53]: > 100 µM and 21.6 µM | TGI [53]: > 100 µM and 57.7 µM | GI50 [54]: > 100 µM and 15.1 µM | TGI [54]: > 100 µM and 32.8 µM | GI50 [55]: > 100 µM and 14.3 µM | TGI [55]: > 100 µM and 27.3 µM | GI50 [56]: > 100 µM and 31.8 µM | TGI [56]: > 100 µM | GI50 [57]: > 100 µM and 22.6 µM | TGI [57]: > 100 µM and 50.8 µM | GI50 [58]: > 100 µM and 36 µM | TGI [58]: > 100 µM | GI50 [59]: > 100 µM and 32 µM | TGI [59]: > 100 µM and 84.5 µM
